Measured values taken from patent US9687845B2, “Self-loading microfluidic device and methods of use” (Wisconsin Alumni Research Foundation, priority 2011, dated 2017).
Where two headings read alike, the source gives them in different places.

What was measured:
[1] = test system: kanamycin-resistant E. coli strain (from MG1655); assay: microbe, parasite or virus in culture; details: Escherichia coli, MG1655, read-out: MIC of the resistant strain, control broth dilution
Procedure: A 1:10 dilution series of the stock solutions in cation-adjusted Mueller-Hinton broth (CAMHB) was prepared and added to CAMBH (pH 7.3) to create a two-fold series dilution in which the total volume was 1 mL. Cell solutions of E. faecalis (1131), P. mirabilis (HI4320), K. pneumoniae, and E. coli (MG1655) were prepared in 13×100 mm tubes by adjusting the concentration of cells in overnight cultures to match the turbidity of a 0.5 McFarland standard (˜10^8 CFU/mL) using CAMHB. The solutions were diluted 100-fold in CAMHB and 1 mL of the suspension was added to 1 mL of antibiotic solution—prepared as described above—to yield a final cell concentration of ˜5×10^5 CFU/mL. The cultures were incubated for 20 h in a humidified incubator at 35° C. (no shaking) with the exception of experiments with vancomycin and E. faecalis, which were incubated for 24 h according to CLSI protocols. The MIC was determined as the lowest concentration of antibiotic at which no growth was visible after incubation.
Thus, the MIC of the kanamycin-resistant E. coli strain and the susceptible strain was determinable by visually identifying the chamber containing the lowest concentration of kanamycin in which the pH indicator remained red.

[2] = test system: K. pneumoniae; assay: Off-chip MIC, broth dilution method according to CLSI protocols; type: cell-based; details: CAMHB, 20 h at 35° C.
Procedure: (§1) Off-chip MIC assays using the broth dilution method according to CLSI protocols were performed as control experiments and to validate experimental data obtained with the microfluidic device.

[3] = test system: E. coli (MG1655); assay: as above; type: cell-based; design: MIC, Broth: unit not given beside the values; details: for MIC, Broth: E. coli, broth dilution, CAMHB, 20 h at 35° C.
Procedure: as §1

[4] = test system: E. faecalis (1131); assay: as above; type: cell-based; design: unit not given beside the values; details: CAMHB, 20 h at 35° C. (vancomycin 24 h)
Procedure: as §1

[5] = test system: P. mirabilis (HI4320); assay: as above; type: cell-based; design: unit not given beside the values; details: CAMHB, 20 h at 35° C.
Procedure: as §1

[6] = test system: kanamycin-resistant E. coli strain (from MG1655); assay: microbe, parasite or virus in culture; details: Escherichia coli, MG1655, 18 h, read-out: MIC of the resistant strain
Procedure: Specifically, 100 μL of an overnight culture of E. coli MG1655 were plated on LB agar plates supplemented with 16 μg/mL kanamycin; the antibiotic concentration was ˜2× the MIC of kanamycin measured against E. coli MG1655. […] One of these colonies was characterized for its sensitivity to kanamycin in the microfluidic device. The kanamycin-resistant strain was compared to the wild type parent strain.
The devices were assembled and placed under vacuum for degassing. After the devices were removed from the vacuum, an aliquot (20 μL) of a suspension of cells of the resistant strain was introduced into the inlet port of one device and an aliquot (20 μL) of a suspension of cells of the wild type strain was introduced into the inlet port of the second device. Degas-driven flow filled and isolated the samples in the chambers. The devices were incubated for 18 h at 35° C. in a humidified incubator.
To eliminate external equipment needed for interpreting the test results, a pH sensor was incorporated to indicate cell growth. Specifically, the pH indicator phenol red (0.05% w/v) and glucose (1% w/v) were added to CAMHB media and adjusted the pH to 8.2. Phenol red was selected as it produces a distinct color change close to neutral pH and is not absorbed by PDMS. At the initial pH of the nutrient media, pH 8.2, phenol red appears bright red. […]

[7] = test system: kanamycin-resistant strain of E. coli MG1655; assay: Susceptibility to multiple antibiotics on a single microfluidic device using breakpoint values; type: cell-based; details: 18 h; for effect on growth of the strain: vancomycin 2, 4, 8 μg/mL, tetracycline 0.5, 1, 2 μg/mL, kanamycin 1, 2, 4 μg/mL
Description: In this Example, a single microfluidic device was used to simultaneously test the susceptibility of the kanamycin-resistant strain of E. coli MG1655 described above to multiple antibiotics using breakpoint values.
In clinical microbiology, a strain is classified as susceptible, intermediate, or resistant based on the relationship of the MIC of an antibiotic to specified ‘breakpoint’ values. Breakpoint values are set by organizations, such as the CLSI, and take into consideration MIC values of wild type strains, pharmacokinetic/pharmacodynamic data, and clinical outcomes. Breakpoint values are available for specific clinically relevant pairings of bacterial species and antibiotics and enable clinical decisions without knowing the exact MIC value.
Specifically, vancomycin, tetracycline, and kanamycin were added to the reaction wells of a single device. The most common breakpoints for vancomycin (susceptible <2 μg/mL, resistant >2 μg/mL), tetracycline (susceptible <1 μg/mL, intermediate=2 μg/mL, resistant >2 μg/mL), and gentamicin (susceptible <2 μg/mL, intermediate=4 μg/mL, resistant >4 μg/mL) were used. As there are no published breakpoints available for kanamycin, the breakpoint values for the structurally related aminoglycoside, gentamicin, against aerobic bacteria was used. A microfluidic device with ten chambers was prepared as described in Example 1 above. The ten chambers were divided into three chambers for each antibiotic vancomycin (2, 4, 8 μg/mL), tetracycline (0.5, 1, 2 μg/mL), and kanamycin (1, 2, 4 μg/mL) and one chamber for a control containing no antibiotic.

[8] = test system: E. coli (MG1655); assay: MIC measurement using the self-loading microfluidic device; type: cell-based; details: for MIC, Device: E. coli, 18 h at 35° C., CAMBH pH 8.2 with 1% glucose and 0.05% phenol red, dilution series 0.5-1024 μg/mL
Procedure: (§2) Minor adjustments were made to procedures mimicking the CLSI guidelines to perform MIC measurements using microfluidic devices prepared as described above. Antibiotic stock solutions (10 mg/mL in sterile deionized water) of vancomycin hydrochloride, tetracycline hydrochloride, and kanamycin monosulfate were used to prepare a 1:10 dilution series. Appropriate amounts of these dilutions were added to sterile deionized water to create a two-fold dilution series that varied from 0.5-1024 μg/mL. Antibiotic solution (2.94 μL) was added to each chamber with the lowest antibiotic concentration located closest to the inlet port and the highest antibiotic concentration located in the chamber closest to the vacuum well. After antibiotic loading, the device was placed in a laminar flow hood to evaporate the liquid. After the liquid was evaporated, the device was assembled by placing the layer of PDMS forming the channel section over the chamber layer containing the dried antibiotic such that the channels connected the chambers. The assembled device was then placed under vacuum.
(§3) The standardized culture was then diluted 1:200 in CAMBH media, pH 8.2 supplemented with 1% glucose and 0.05% phenol red to provide a colorimetric change upon growth. The device was removed from the vacuum and 20 μL of cell suspension was pipetted onto the inlet port. […] Bacterial growth changed the pH of the liquid nutrient media containing the indicator phenol red, and produced a visible color change that was used to identify the cell growth in chambers.

[9] = test system: E. faecalis (1131); assay: as above; type: cell-based; details: 18 h at 35° C., CAMBH pH 8.2 with 1% glucose and 0.05% phenol red, dilution series 0.5-1024 μg/mL
Procedure: as §2, §3

[10] = test system: P. mirabilis (HI4320); assay: as above; type: cell-based; details: 18 h at 35° C., CAMBH pH 8.2 with 1% glucose and 0.05% phenol red, dilution series 0.5-1024 μg/mL
Procedure: as §2, §3

[11] = test system: K. pneumoniae; assay: as above; type: cell-based; details: 18 h at 35° C., CAMBH pH 8.2 with 1% glucose and 0.05% phenol red, dilution series 0.5-1024 μg/mL
Procedure: as §2, §3

NC[C@H]1O[C@H](O[C@H]2[C@H](O)[C@@H](O[C@H]3O[C@H](CO)[C@@H](O)[C@H](N)[C@H]3O)[C@H](N)C[C@@H]2N)[C@H](O)[C@@H](O)[C@@H]1O [kanamycin, kanamycin monosulfate] was tested, and the MIC [1] was 128 µg/mL, the “MIC, Broth” value [2] was 2 and the “MIC, Broth” value [3] was 8. The MIC ([3]; Escherichia coli, MG1655, Example 5, standard liquid broth dilution assay, read-out: MIC of the wild type strain, control broth dilution) was 8 µg/mL, the “MIC, Broth” value [4] was 64 and the “MIC, Broth” value [5] was 4. The MIC [6] was 64 µg/mL, the “effect on growth of the strain” value [7] was “did not have any effect” and the “MIC, Device” value [8] was 4. For the same compound, the MIC ([8]; Escherichia coli, MG1655, Example 5, 18 h at 35° C., phenol red indicator, read-out: MIC of the wild type strain) was 4 µg/mL, the “MIC, Device” value [9] was 128 and the “MIC, Device” value [10] was 8. For the same compound, the “MIC, Device” value [11] was 2.

In the case of CN(C)[C@@H]1C(O)=C(C(N)=O)C(=O)[C@@]2(O)C(O)=C3C(=O)c4c(O)cccc4[C@@](C)(O)[C@H]3C[C@@H]12.Cl [tetracycline, tetracycline hydrochloride], the “MIC, Broth” value [2] is reported as 8, the “MIC, Broth” value [3] is reported as 1 and the “MIC, Broth” value [4] is reported as 32. The “MIC, Broth” value [5] was 256, the “effect on growth of the strain” value [7] was “inhibited the growth” and the “phenotype of the strain by breakpoint values” ([7]; tetracycline breakpoints) was “intermediate (intermediate=2 μg/mL)”. The “MIC, Device” value [8] was 2, the “MIC, Device” value [9] was 64 and the “MIC, Device” value [10] was 128. For the same compound, the “MIC, Device” value [11] was 8.
